Laboratory results from patent US7368232B2, “High-throughput assay for virus entry and drug screening” (priority 2003, dated 2008).

Assays:
[1] = tested on: VSV-G pseudotyped virus containing env-luc1; type: cell-based, vesicular stomatitis virus
[2] = tested on: VSV env pseudotyped virus; type: cell-based, Vesicular Stomatitis Virus
[3] = tested on: Ebola env pseudotyped virus; type: cell-based
[4] = tested on: Rabies env pseudotyped virus; type: cell-based
[5] = tested on: Friend MLV containing env-luc1; type: cell-based, Friend murine leukemia virus
[6] = tested on: MLV env pseudotyped virus; type: cell-based, murine leukemia virus
VSV-G pseudotyped virus = type: cell-based, vesicular stomatitis virus

Structure (SMILES)	effect on luciferase entry signal [1]	effect on luciferase activities in the viral entry assay [2]	effect on entry of Ebola virus env pseudotyped particles [3]	effect on luciferase activities in the viral entry assay [4]	effect on luciferase entry signal [5]	effect on luciferase activities in the viral entry assay [6]	reduction of infection (β-galactosidase infection assay) (VSV-G pseudotyped virus)	decrease of luciferase entry signal [1]
Cl.N [ammonium chloride]	inhibited the signal	completely inhibit	significantly inhibited	completely inhibit	only weakly affected	–	–	–
CO/C1=C\C(C)=C\[C@@H](C)[C@@H](O)[C@@H](C)C/C(C)=C/C=C/[C@H](OC)[C@@H]([C@@H](C)[C@@H](O)[C@H](C)[C@@]2(O)C[C@@H](O)[C@H](C)[C@@H](C(C)C)O2)OC1=O [bafilomycin A1]	inhibited the signal	completely inhibit	significantly inhibited	completely inhibit	only weakly affected	little effect	100 fold	–
CCN(CC)CCCC(C)Nc1ccnc2cc(Cl)ccc12 (stereo not shown) [chloroquine]	inhibited the signal	–	–	–	only weakly affected	–	20 fold	7 fold
